In US20140123342A1, “Regulation of Stomatal Apertures by Apyrases and Extracellular Nucleotides” (BOARD OF REGENTS, THE UNIVERSITY OF TEXAS SYSTEM, priority 2011, published 2014):

Assays:
Type in all cases: cell-based, Arabidopsis thaliana
[1] = test system: H2O2 in guard cells; assay: Detection and quantification of H2O2 (H2DCFDA fluorescence); details: 200 μM, leaf epidermal tissue, after 30 min
Experimental: (§1) Detection and Quantification of H2O2 and NO: Col-0 plants were grown on soil for 2 to 4 weeks under continuous light at 21° C. Plants were placed in the dark for 24 h to ensure closure and then transferred to the light for 1 h. After 1 h in the light, mature basal leaves were excised and blended in a Waring blender on the low setting for approximately 10 s to isolate epidermal tissues, and the tissues were placed in 3 mL of 30 mM KCl, 10 mM Mes-KOH, pH 6.16 buffer in light for 2 h (Pei et al., 2000; Murata et al., 2001). DAF-2 DA and H2DCFDA were dissolved in DMSO to produce 5 mM and 10 mM stock solutions, respectively, and these were stored at −20° C. in 30 μL, aliquots. Fifty μM H2DCFDA or 15 μM DAF-2 DA was added to the medium in the dark, and after 30 min, 10 μM ABA, 200 μM ATPγS, or buffer (ATP control) was also added to the medium in the dark for 30 min. Peels were then rinsed by decanting the treatment solution and adding 3 mL fresh leaf buffer to the peels. Peels were rinsed twice as described. A peel from each of the three treatments (ABA, ATPγS and buffer) were placed on the same microscope slide and observed sequentially. A second study was staggered 30 to 45 min after the first by loading the H2DCFDA or DAF-2 DA dye to new peels 30 to 45 min after the first round of dye was added. Confocal laser scanning microscopy (CLSM) was performed with a Leica SP2 AOBS confocal microscope (Leica Microsystems, Bannockburn, Ill., USA). Laser power was set at 15%, with an excitation of 488 nm and an emission of 525 nm. A series of 0.5 μm optical sections with average intensity projection along the z axis were collected and made into one 2D image with greater focal depth. All images were obtained with the same software scanning settings including detector gain and laser intensity settings.

[2] = test system: stomata (guard cells) in epidermal peels; assay: Stomatal aperture closure studies, epidermal peels in the light; details: for effect on stomatal aperture: epidermal peels, light, 1 h
Experimental: (§2) Stomatal Aperture Studies: Arabidopsis thaliana ecotypes Columbia (Col-0) and Wassilewskija (WS) were used as wild types in this study. Col-0, nia1nia2, atrbohD/F, R2-4A and WS plants were all grown on autoclaved Metro-Mix 200 soil at 22° C. under continuous light. The mutant seeds nia1nia2 nia2-5; CS 2356; Col-0 background) were obtained from Dr. N. M. Crawford (University of California at San Diego) and the mutant seeds atrbohD/F (Col-0 background) were obtained from Dr. J. M. Kwak (University of Maryland). The RNAi mutant apyrase line (R2-4A) is in WS background, so WS ecotype was used as the control wild type for these studies. Leaves from 2 to 3 week old Col-0 plants, or R2-4A and WS plants treated with 4 μM estradiol for 1 week after development of mature basal leaves were used for peel and whole leaf studies. Plants were placed in the dark and watered 24 h before an study. For opening studies, plants were used immediately after 24 h dark treatment and all treatments were done in the dark except for the light treated leaves or peels, thus the control stomata are dark controls. For closure studies, plants were placed in the light 3 h before an study to induce stomatal opening and all treatments were done in the light, thus the control stomata are light controls. For peel studies, epidermal peels were made from the underside of the leaf and treatments were applied to the peels for 1 h. For whole leaf studies, leaves were removed and treatments were applied for 2 h. For each treatment, about 3 or 4 peels collected from different leaves or 3 or 4 different leaves of at least two different plants were floated with the abaxial side up in petri dishes on 3 mL of Arabidopsis leaf buffer consisting of 10 mM KCl, 25 mM MES pH 6.15 (Melotto et al., 2006) and the chemical being tested. For whole leaf studies peels were collected after the treatment.
(§3) For studies testing the effects of ATPγS, ADPγS, AMPS, RB2, and PPADS (Sigma, St. Louis, Mo., USA) 20 mM stocks were made by dissolving the compounds in de-ionized water. For studies testing the effects of apyrase inhibitors, 7.5 mg/mL of NGXT191 and of inhibitor #13 (Windsor et al., 2002) was dissolved in dimethyl sulfoxide (DMSO) and then applied at a dilution of […] for a final concentration of 0.1% DMSO. ABA (Sigma, St. Louis, Mo., USA) was dissolved in ethanol in 10 mM stocks and then applied at a dilution of 1:1000. The stocks were stored at −20° C. while not in use. The production of the anti-AtAPY1 antibodies used is described by Steinebrunner et al. (2003). The crude immune and pre-immune sera were purified using protein A-Sepharose following the protocol described by Martin (1982) with the slight modification that the buffers used were azide-free. The protein-A purified sera were both used at a 1:1000 dilution in leaf stomatal aperture studies. The concentration of the immune and pre-immune sera, determined by Bradford assay (Bio-Rad), was 10.2 μg/mL and 7.7 μg/mL, respectively.
(§4) After treatment, photos of stomata were taken using a light microscope at 20×. Stomatal aperture width was measured using the image processing software ImageJ. Typically, photos were taken of 70 to 90 stomata per treatment of which only 50 stomata were measured for each treatment. For each treatment the ratio of closed stomata (width of 0) to open stomata was determined for all stomata imaged and this ratio was maintained in the 50 stomata that were measured for each treatment. Data shown uses apertures determined as width/length, however data in all studies also obtained as width only and generally width/length and width only data are in agreement with each other. Statistical significance of the measurements for the treatments was determined using the Student's t test in Microsoft Excel.

[3] = test system: stomata of atrbohD/F mutant leaves; assay: Stomatal closing studies with whole leaves of atrbohD/F mutant; details: 200 ATPγS
Experimental: (§5) Stomatal Aperture Studies: Arabidopsis thaliana ecotypes Columbia (Col-0) and Wassilewskija (WS) were used as wild types in this study. Col-0, nia1nia2, atrbohD/F, R2-4A and WS plants were all grown on autoclaved Metro-Mix 200 soil at 22° C. under continuous light. The mutant seeds nia1nia2 nia2-5; CS 2356; Col-0 background) were obtained from Dr. N. M. Crawford (University of California at San Diego) and the mutant seeds atrbohD/F (Col-0 background) were obtained from Dr. J. M. Kwak (University of Maryland). The RNAi mutant apyrase line (R2-4A) is in WS background, so WS ecotype was used as the control wild type for these studies. […]
as §4, with “Statistical significance of the measurements for the treatments was determined using the Student's t test in Microsoft Excel.” left out

[4] = test system: stomata (guard cells) in whole leaves; assay: Stomatal aperture closure studies, whole leaves in the light
Experimental: as §2, §3, §4

[5] = test system: stomata of nia1nia2 mutant leaves; assay: Stomatal closing studies with whole leaves of nia1nia2 mutant; details: 200 ATPγS
Experimental: as §5
as §4, with “Statistical significance of the measurements for the treatments was determined using the Student's t test in Microsoft Excel.” left out

[6] = test system: NO in guard cells; assay: Detection and quantification of NO (DAF-2 DA fluorescence)
Experimental: as §1

[7] = test system: stomata (guard cells) in epidermal peels; assay: Stomatal aperture opening studies, epidermal peels in the dark; details: for effect on stomatal aperture: darkness, 1 h
Experimental: as §2, §3, §4

[8] = test system: stomata (guard cells) in whole leaves; assay: Stomatal aperture opening studies, whole leaves in the dark; details: whole leaf studies (data not shown)
Experimental: as §2
as §3, with “The crude immune and pre-immune sera were purified using protein A-Sepharose following the protocol described by Martin (1982) with the slight modification that the buffers used were azide-free. The protein-A purified sera were both used at a 1:1000 dilution in leaf stomatal aperture studies.” left out
as §4

SMILES | increase in H2DCFDA fluorescence in guard cells [1] | effect on stomatal aperture ([2]; 150 μM) | mean stomatal aperture after closure compared with ABA ([2]; 200 μM versus 10 μM ABA) | effect on stomatal aperture ([2]; 200 μM) | effect on stomatal aperture ([2]; 250 μM) | effect on stomatal aperture [3] | effect on stomatal aperture ([4]; 200 μM, leaves, light, 2 h) | threshold for nucleotide-induced stomatal closure ([4]; whole leaf studies, compared with peel studies (150 to 200 μM; not shown)) | effect on stomatal aperture [5] | increase in DAF-2 DA fluorescence in guard cells ([6]; 200 μM, leaf epidermal tissue, after 45 min) | effect on stomatal aperture ([7]; 5 μM) | effect on stomatal aperture ([7]; 15 μM) | mean stomatal aperture compared with light treatment ([7]; low concentrations (5 and 15 μM)) | threshold concentration for stomatal opening [8] | effect on ABA- and ATPγS-induced DAF-2 DA fluorescence ([6]; co-incubation (data not shown))
Nc1ncnc2c1ncn2[C@@H]1O[C@H](COP(=O)(O)OP(=O)(O)OP(O)(O)=S)[C@@H](O)[C@H]1O [ATPγS] | 3 fold | no statistically significant effect | statistically the same as the aperture induced by treatment with 10 μM ABA | induced stomatal closure | induced stomatal closure | no effect on stomatal aperture | induced stomatal closure | same threshold | no effect on stomatal aperture | 2.5 fold | induced opening | induced opening | smaller than the aperture induced by light treatment | higher than 5 μM | –
CC1(C)N([O])C(c2ccc(C(=O)O)cc2)=[N+]([O-])C1(C)C [cPTIO] | – | – | – | – | – | – | – | – | – | – | – | – | – | – | blocked
